Experiment [1] deals with T1, PDE4B (Homo sapiens, UniProt Q07343).
T1 construct: purchased BPS bioscience
Put plainly: PDE enzymatic activity, HTRF cAMP dynamic test. The class given is biochemical. As to conditions: 3 μM, 10 μM and 30 μM; compared with DMSO control; n=6; FIG. 1B. How it is done:
(§1) Enzymatic activities of PDE subtypes were analyzed according to the user manual of HTRF® package insert cAMP dynamic tests (Cisbio bioassays, catalog number 62AM4PEB). Ribociclib was dissolved in DMSO (as solvent) and then added to PDE assay buffer which contains PDE4A, PDE4B, PDE4C, PDE4D, PDE3B or PDE7A (sold by BPS bioscience). The final concentration of Ribociclib was 0.1 to 30 μM. Then, the mixtures were incubated for 10 minutes at 37° C. PDE assay buffer which was added by DMSO (solvent, marked as “−” in FIGS. 1A-1F) instead of Ribociclib was as a control in this experiment. 60 nM of cAMP was added to each reagent and then incubated for 45 minutes at 37° C. After incubation, cAMP-d2 and anti-cAMP-cryptate were added to each reagent and react at room temperature for 1 hour away from light. Finally, the reagents were quantified by the luminometer (TECAN infinite 200 Pro) to detect enzymatic activities of PDE subtypes.
A general note: In TR-FRET formats the signal depends on donor and acceptor labels being close together.

Experiment [2] concerns the target T2, PDE4C (Homo sapiens, UniProt Q08493).
T2 construct: purchased BPS bioscience
Put plainly: PDE enzymatic activity, HTRF cAMP dynamic test. Format: biochemical. As to conditions: 3 μM, 10 μM and 30 μM; compared with DMSO control; n=6; FIG. 1C. On the procedure:
as §1

Experiment [3] concerns the target T3, PDE4D (Homo sapiens, UniProt Q08499).
T3 construct: purchased BPS bioscience
Kind of experiment: PDE enzymatic activity, HTRF cAMP dynamic test. The class given is biochemical. As to conditions: 10 μM and 30 μM; compared with DMSO control; n=6; FIG. 1D. How it is done: as §1

Experiment [4] deals with T4, PDE7A (Homo sapiens, UniProt Q13946).
T4 construct: purchased BPS bioscience
T4 sequence (Q13946 whole entry): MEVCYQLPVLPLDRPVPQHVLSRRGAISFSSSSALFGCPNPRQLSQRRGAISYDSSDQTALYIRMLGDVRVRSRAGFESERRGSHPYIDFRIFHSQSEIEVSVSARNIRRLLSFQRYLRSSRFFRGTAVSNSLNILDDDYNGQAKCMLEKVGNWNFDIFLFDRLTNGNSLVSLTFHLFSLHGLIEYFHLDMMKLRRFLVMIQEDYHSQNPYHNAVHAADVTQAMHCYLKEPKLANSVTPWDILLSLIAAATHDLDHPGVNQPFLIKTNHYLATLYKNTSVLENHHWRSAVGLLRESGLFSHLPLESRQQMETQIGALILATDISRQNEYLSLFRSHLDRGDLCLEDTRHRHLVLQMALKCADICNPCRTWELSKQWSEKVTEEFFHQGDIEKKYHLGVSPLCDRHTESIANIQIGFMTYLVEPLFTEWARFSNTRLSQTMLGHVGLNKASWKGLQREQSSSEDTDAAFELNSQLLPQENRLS
Kind of experiment: PDE enzymatic activity, HTRF cAMP dynamic test. Format: biochemical. As to conditions: 0.1 to 30 μM; FIG. 1F. On the procedure: as §1

Experiment [5] addresses T5, PDE3B (Homo sapiens, UniProt Q13370).
T5 construct: purchased BPS bioscience
Put plainly: PDE enzymatic activity, HTRF cAMP dynamic test. The conditions noted are these: 0.1 to 30 μM; FIG. 1E. Format: biochemical. On the procedure:
as §1

Experiment [6] addresses T6, PDE4A (Homo sapiens, UniProt P27815).
T6 construct: purchased BPS bioscience
Kind of experiment: PDE enzymatic activity, HTRF cAMP dynamic test. Format: biochemical. As to conditions: 0.1 μM, 0.3 μM, 1 μM, 3 μM and 10 μM; compared with DMSO control; n=6; FIG. 1A. How it is done: as §1

The test system of experiment [7] is Human neutrophils. Kind of experiment: Superoxide anion generation in fMLF-stimulated neutrophils (ferricytochrome c reduction). The class given is cell-based. As to conditions: 1 μM, 3 μM and 10 μM; fMLF (0.1 μM)/cytochalasin B (1 μg/ml) stimulated; p<0.001 vs control; n=6; FIG. 2. How it is done:
The informed consent to participate which was approved by the Institutional Review Board are signed by the donors. 50 mL of blood was collected from the median cubital vein of each donor by sterile vacutainer, and was used to isolate neutrophils for the following experiments. Human neutrophils (isolated from whole blood of donors) were incubated with DMSO (as solvent, marked as “−” in the groups at X-axis in FIGS. 2A and 2B) or Ribociclib (0.3-10 μM) for 5 minutes, and then stimulated the neutrophils with or without fMLF (0.1 μM)/cytochalasin B (CB, 1 μg/ml) for another 10 minutes to activate the neutrophils. The absorbance (OD550) of the reaction mixture was then measured by a spectrophotometer at OD 550 nm. The reading of OD550 is used to detect the reduction of ferricytochrome c, which indicates the amount of superoxide anion. Cytochalasin B was sold by Sigma-Aldrich, catalog number #2506; fMLF was sold by Sigma-Aldrich, catalog number #454454; model number of the spectrophotometer is HITACHI U-3010.

Experiment [8] relates to IMQ-treated mice. Put plainly: Psoriasis-like symptoms in IMQ-treated mice. Format: in vivo, BALB/c mice. The conditions noted are these: applied on back skin once per day for 5 days before IMQ, FIG. 3. On the procedure:
250 μg or 500 μg of Ribociclib was dissolved in 50 μl of 0.5% (w/v) methylcellulose 400 solution to make a pharmaceutical composition. The Ribociclib concentration of the pharmaceutical composition was 250 μg/50 μl or 500 μg/50 μl and used in the subsequent animal experimental examples 4 and 5. Male BALB/c mice (7-9 weeks of age, the body weight of each mouse is about 25 g) were divided into different groups, and each group has 6 mice. Each mouse was epilation on the back and then treated with 50 μl of solvent (0.5% methylcellulose 400) or 50 μl of the pharmaceutical composition prepared in example 3 (the concentration of Ribociclib is 10 or 20 mg/kg of body weight) by applying on the nude back skin before topical treatment of imiquimod (IMQ, sold by 3M Health Care Limited). And then applying with or without IMQ on the nude back skin of mice to cause psoriasis-like symptom. Each treatment was given once per day for 5 consecutive days. The mice which applying solvent and IMQ is played as the control. The mice which merely applying solvent is played as the blank.

The source of these data is patent US11351172B2, “Pharmaceutical composition and use for applying ribociclib in phosphodiesterase 4-mediated disease treatment of patient and inhibition of phosphodiesterase 4 activity” (Chang Gung University, priority 2019, dated 2022).

T3 sequence (Q08499 whole entry): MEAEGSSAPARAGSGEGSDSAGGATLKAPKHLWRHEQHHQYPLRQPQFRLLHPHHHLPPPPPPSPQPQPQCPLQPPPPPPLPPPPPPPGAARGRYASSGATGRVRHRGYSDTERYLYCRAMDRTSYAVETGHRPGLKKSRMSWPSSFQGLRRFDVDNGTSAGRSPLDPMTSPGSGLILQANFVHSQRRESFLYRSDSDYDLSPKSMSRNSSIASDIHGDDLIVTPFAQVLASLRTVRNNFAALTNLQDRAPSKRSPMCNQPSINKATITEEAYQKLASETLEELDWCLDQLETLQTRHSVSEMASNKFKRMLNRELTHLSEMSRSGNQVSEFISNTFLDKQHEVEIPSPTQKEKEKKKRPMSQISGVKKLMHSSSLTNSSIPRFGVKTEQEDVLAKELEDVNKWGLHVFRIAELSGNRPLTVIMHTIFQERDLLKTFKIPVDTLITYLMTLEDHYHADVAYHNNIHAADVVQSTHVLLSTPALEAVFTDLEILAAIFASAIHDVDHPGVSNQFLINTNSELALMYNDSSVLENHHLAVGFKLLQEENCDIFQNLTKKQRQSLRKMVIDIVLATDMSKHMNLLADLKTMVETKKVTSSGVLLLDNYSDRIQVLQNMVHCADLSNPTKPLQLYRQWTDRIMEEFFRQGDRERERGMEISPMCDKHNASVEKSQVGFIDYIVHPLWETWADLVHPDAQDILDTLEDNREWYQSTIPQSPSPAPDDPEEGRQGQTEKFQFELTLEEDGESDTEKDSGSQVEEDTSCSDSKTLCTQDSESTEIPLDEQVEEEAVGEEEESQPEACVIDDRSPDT
T2 sequence (Q08493 whole entry): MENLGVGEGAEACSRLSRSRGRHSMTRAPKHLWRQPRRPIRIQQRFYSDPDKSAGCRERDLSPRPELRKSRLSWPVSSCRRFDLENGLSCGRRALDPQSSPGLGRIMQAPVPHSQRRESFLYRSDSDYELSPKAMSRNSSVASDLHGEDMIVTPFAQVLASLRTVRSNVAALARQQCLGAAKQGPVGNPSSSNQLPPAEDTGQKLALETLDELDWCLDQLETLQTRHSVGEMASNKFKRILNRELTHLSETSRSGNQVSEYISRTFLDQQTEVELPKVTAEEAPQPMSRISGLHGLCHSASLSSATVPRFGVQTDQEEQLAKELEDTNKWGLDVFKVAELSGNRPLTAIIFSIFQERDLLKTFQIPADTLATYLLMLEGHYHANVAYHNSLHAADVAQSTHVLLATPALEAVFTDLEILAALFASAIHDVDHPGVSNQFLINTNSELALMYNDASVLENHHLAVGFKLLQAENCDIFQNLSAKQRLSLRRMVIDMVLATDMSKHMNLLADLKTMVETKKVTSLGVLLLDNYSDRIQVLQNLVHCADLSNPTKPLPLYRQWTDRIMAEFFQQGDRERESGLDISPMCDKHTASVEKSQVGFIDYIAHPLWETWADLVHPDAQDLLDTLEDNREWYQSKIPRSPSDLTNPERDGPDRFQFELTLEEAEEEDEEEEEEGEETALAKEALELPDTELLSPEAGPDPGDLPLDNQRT
T6 sequence (P27815 whole entry): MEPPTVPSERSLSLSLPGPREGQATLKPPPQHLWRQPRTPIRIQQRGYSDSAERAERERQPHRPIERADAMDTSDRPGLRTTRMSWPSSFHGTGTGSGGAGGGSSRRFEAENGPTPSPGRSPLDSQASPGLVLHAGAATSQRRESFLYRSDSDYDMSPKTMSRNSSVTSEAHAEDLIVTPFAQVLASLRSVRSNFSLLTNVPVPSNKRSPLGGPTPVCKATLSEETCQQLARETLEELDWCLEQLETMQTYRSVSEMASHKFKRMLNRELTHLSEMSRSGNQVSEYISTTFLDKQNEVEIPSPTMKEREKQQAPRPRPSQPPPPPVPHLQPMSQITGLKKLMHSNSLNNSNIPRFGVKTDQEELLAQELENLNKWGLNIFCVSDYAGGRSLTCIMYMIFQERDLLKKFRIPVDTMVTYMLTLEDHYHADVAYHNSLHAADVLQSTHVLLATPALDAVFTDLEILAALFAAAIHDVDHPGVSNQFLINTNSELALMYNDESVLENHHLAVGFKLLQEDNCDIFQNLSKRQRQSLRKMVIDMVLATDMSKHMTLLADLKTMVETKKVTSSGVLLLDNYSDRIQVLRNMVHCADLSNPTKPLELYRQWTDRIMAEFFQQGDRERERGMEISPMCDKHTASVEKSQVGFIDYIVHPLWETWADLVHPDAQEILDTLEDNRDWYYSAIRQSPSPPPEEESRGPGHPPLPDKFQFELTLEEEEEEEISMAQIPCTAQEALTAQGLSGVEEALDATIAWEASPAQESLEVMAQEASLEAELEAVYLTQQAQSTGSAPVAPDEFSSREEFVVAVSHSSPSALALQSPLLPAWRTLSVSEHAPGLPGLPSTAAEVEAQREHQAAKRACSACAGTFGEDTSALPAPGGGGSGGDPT
T5 sequence (Q13370 whole entry): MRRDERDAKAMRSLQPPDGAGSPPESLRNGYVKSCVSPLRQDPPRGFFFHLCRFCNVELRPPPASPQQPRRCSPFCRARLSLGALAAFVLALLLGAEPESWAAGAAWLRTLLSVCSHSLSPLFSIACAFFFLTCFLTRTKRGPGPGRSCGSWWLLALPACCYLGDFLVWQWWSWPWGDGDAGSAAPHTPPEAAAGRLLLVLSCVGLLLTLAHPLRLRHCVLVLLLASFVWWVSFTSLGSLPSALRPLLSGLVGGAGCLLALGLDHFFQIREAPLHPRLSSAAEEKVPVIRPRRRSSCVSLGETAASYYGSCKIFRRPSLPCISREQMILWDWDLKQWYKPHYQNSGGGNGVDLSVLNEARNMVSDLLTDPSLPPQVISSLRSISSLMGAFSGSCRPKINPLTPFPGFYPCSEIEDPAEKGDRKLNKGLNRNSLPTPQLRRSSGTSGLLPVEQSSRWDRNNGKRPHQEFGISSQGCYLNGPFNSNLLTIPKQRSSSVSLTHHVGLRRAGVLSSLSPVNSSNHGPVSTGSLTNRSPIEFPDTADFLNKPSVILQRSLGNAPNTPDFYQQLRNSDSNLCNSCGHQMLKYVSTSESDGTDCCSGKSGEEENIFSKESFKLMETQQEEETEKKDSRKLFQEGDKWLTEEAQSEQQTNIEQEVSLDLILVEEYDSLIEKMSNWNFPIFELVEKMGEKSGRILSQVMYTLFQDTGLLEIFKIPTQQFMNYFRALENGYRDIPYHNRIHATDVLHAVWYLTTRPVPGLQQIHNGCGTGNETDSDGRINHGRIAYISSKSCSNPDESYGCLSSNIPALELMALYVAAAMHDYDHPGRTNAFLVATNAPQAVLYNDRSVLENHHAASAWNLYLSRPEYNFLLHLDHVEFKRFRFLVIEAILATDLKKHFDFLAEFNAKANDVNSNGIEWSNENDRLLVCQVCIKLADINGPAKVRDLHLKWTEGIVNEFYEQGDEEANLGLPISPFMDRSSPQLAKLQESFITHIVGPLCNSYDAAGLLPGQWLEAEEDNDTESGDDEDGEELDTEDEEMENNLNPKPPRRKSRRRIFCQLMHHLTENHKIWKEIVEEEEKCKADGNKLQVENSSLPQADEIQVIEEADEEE
T1 sequence (Q07343 whole entry): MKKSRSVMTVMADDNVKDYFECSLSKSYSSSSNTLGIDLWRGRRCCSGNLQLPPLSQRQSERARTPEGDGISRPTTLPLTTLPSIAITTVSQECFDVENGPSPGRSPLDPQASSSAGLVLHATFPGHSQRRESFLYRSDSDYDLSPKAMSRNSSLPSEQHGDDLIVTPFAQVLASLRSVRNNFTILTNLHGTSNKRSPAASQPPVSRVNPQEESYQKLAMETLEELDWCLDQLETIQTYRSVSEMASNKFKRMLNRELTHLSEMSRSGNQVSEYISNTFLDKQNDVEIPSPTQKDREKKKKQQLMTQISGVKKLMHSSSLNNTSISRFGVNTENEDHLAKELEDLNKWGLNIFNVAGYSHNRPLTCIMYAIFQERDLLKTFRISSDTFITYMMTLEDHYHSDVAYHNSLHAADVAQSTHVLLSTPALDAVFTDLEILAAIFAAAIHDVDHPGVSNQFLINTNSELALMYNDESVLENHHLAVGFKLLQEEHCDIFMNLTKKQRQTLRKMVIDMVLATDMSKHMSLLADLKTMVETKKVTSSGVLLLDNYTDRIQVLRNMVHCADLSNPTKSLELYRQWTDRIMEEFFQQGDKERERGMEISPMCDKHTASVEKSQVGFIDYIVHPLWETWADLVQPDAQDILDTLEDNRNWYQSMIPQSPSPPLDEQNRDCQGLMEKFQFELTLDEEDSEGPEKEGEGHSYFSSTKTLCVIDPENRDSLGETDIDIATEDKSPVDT

Turning to `CN(C)C(=O)c1cc2cnc(Nc3ccc(N4CCNCC4)cn3)nc2n1C1CCCC1` [Ribociclib, 7-Cyclopentyl-N,N-dimethyl-2-{[5-(1-piperazinyl)-2-pyridinyl]amino}-7H-pyrrolo[2,3-d]pyrimidine-6-carboxamide], the PDE4B activity entry in experiment [1] is on record as “significantly inhibit PDE4B activity”. Moreover, the PDE4C activity entry in experiment [2] is reported as “significantly inhibit PDE4C activity”. The PDE4D activity entry in experiment [3] was “significantly inhibit PDE4D activity”. Also, in experiment [4], the PDE7A activity result was “would not inhibit”. Besides, the PDE3B activity entry in experiment [5] is “would not inhibit”. Moreover, the PDE4A activity entry in experiment [6] was “significantly inhibit PDE4A activity”. The “generation of superoxide anion” value in experiment [7] is “significantly restrict the generation of superoxide anion”. In addition, the psoriasis-like symptoms entry in experiment [8] (10 mg/kg of the body weight) and in experiment [8] (20 mg/kg of the body weight) was “can improve or cure the psoriasis-like symptoms” in each case.
